# Laboratory results as given in PMC5617480 (Oncotarget, 2017).
# Like-named read-outs stand apart in the source and are kept apart here.
# Test system: BEL-7404 xenograft
# Conditions: for Body weight (start) / Tumor volume (start) / Average tumor weight (mean ± SD g) / Body weight (end) / RBW (%) (end) / Tumor volume (end): BEL-7404 model; for Average tumor weight (mean ± SD g) / Body weight (end) / RBW (%) (end) / Tumor volume (end): day 18
# Protocol: In vivo anticancer efficacy of chiral platinum(II) complex 6 was evaluated using BEL-7404 and BEL-7402 xenograft mouse models. BEL-7404 and BEL-7402 cells were injected into nude mice. The mice were randomized into the control group, complex 6-treated group, and the positive control group (n = 6/group). When the volume of tumor was about 80 mm^3, complex 6 was given at a high (8 mg/kg) and low (4 mg/kg) dosage daily for 18 days, 5-FU (20 mg/kg every two days) and Cisplatin (2 mg/kg every two days) were used as a positive control in the BEL-7404 and BEL-7402 xenograft model, respectively.
# To evaluate the vivo anticancer efficacy of complex 6, BEL-7404 and BEL-7402 xenograft mouse models (BALB/c nude mice, female for BEL-7404 model, 17–20 g, 6–7 weeks old; male for BEL-7402 model, 18-21 g, 6–7 weeks old) were used. Furthermore, animal used, maximum tolerated dose (MTD) analysis, acute toxicity studies and antitumor activity toward BEL-7404 and BEL-7402 models in vivo of complex 6, was similar to Chen reported.
# H21T (3.5 pmol; 5’-G [T AG ] -3’), primer TS (18 pmol; tumor tissue were cut into about 1.5 mm3 small pieces, and […]
# 5’-[…]-3’), KCl (63 mM), then transplanted into the right flank of nude mice. When EGTA (1 mM), MgCl (1.5 mM), Tween-20 (0.005%), the average tumors reach a volume of about 80 mm3, the […]
# primer NT (7.5 pmol; 5’-[…]-3’), mice were randomized into 4 groups (n=6), received the […]
# TSNT internal control (0.01 amol; 5’-[…] following treatments: (a) control, received saline solvent; […]
# -3’), primer (b) complex 6 at doses of 8.0 mg/kg daily (dissolve in […]
# Cxext (22.5 pmol; 5’-[…] saline, iv); (c) complex 6 at doses of 4.0 mg/kg daily; […]
# […]-3’), Taq DNA polymerase (2.5 U), and (d) in BEL-7404 model, 5-fluorouracil (5-Fu) as positive telomerase (100 ng). Complexes or/and distilled water control at 20 mg/kg per two days (dissolve in saline, iv); was added ([…]). PCR was performed in an Eppendorf in BEL-7402 model, cisplatin as positive control at 2 mg/ Master cycler equipped with a hot lid and incubated for kg per two days (dissolve in saline, iv).
# 30.0 min at 30 °C, followed by 92 °C 30 s, 52 °C 30 s, The tumor volumes and body weight was monitored and 72°C 30 s for 30.0 cycles. After amplification, 8.0 every 3 days, The tumor volumes were estimated by […] loading buffer (5×TBE buffer, 0.2% xylene cyanol, measuring the two dimensions of the tumors using caliper and 0.2% bromophenol blue ) were added to the reaction. and calculated by the formula 1 [1, 6, 14]:
# An […] of aliquot was loaded onto a nondenaturing V = (length × width2)/2(1) acrylamide gel (19:1, 16%) in 1×TBE buffer and resolved at 200.0 V for 1.0 h. Gels were fixed and then stained with On day 18, the mice were sacrificed, and tumor AgNO3 [8–11]. tissue were dissected out and weighted, tumor growth inhibition rate calculated using formulas 2 and 3 [1, 6,
# In order to verify whether complexes 4–6 can TGI (%) = (ΔVc − ΔVt)/ΔVc×100%(2) directly regulate c-myc promoter (Pu27) and the IR(%) = (Wc − Wt)/Wc×100%(3) expression of hTRET in BEL-7404 cells, consequently Where ΔVt = tumor volumefinal −tumor volumeinitial inhibiting the telomerase function, we constructed EGFP for compound treated group, ΔVc=tumor volumefinal − and c-myc gene vectors according to those illustrated tumor volumeinitial for vehicle control group; Wt and Wc in Chalfie, Chen and He previous work. The detailed mean the average tumor weight of complex-treated and procedures for the construct of gene (c-myc and EGFP vehicle controlled group respectively. genes) vectors, and the method of transfection assays REFERENCES have been reported by Chalfie, Chen and He [1, 6, 9, 12,
substance,measurement,setting,value
cis-[PtCl2(S-(–)-FOA)] [complex 6],discomfort / side effects in diet intake or overall body weight,"BEL-7404 and BEL-7402 models, 4 and 8 mg/kg daily",did not display any discomfort or discernible side effects
same,Body weight (start),6 4.0 mg/kg daily iv,19.5 ± 1.6 g
same,Tumor volume (start),6 4.0 mg/kg daily iv,75.81±19.95 mm3
same,Average tumor weight (mean ± SD g),6 4.0 mg/kg daily iv,0.67 ± 0.08 g
same,Body weight (end),6 4.0 mg/kg daily iv,17.2 ± 1.7 g
same,RBW (%) (end),6 4.0 mg/kg daily iv,87.9±4.2%
same,Tumor volume (end),6 4.0 mg/kg daily iv,782.94±73.43 mm3
same,Body weight (start),6 8.0 mg/kg daily iv,19.5 ± 1.2 g
same,Tumor volume (start),6 8.0 mg/kg daily iv,73.70±16.66 mm3
same,Average tumor weight (mean ± SD g),6 8.0 mg/kg daily iv,0.51 ± 0.19 g
same,Body weight (end),6 8.0 mg/kg daily iv,17.4 ± 0.8 g
same,RBW (%) (end),6 8.0 mg/kg daily iv,89.2±2.5%
same,Tumor volume (end),6 8.0 mg/kg daily iv,659.96±253.88 mm3
